According to patent publication US10730830B2, “Tetrahydronaphthalene derivative” (ONO PHARMACEUTICAL CO., LTD., priority 2016, dated 2020):
Counter-ions that a name gives are not always drawn.

Key:
human S1P1 (EDG-1) = human S1P1 (EDG-1) (Homo sapiens (Human), UniProt P21453); assay: Inhibition of binding of [33P]-S1P to S1P1 (EDG-1), CHO cell membrane fractions; settings: [33P]-S1P displacement, CHO membranes overexpressing human S1P1
Method: (§1) Biological Experimental Example 1: Measurement of the Inhibitory Action of the Compound of the Present Invention on Binding of [^33P]-S1P to S1P5 (EDG-8)
(§2) A reaction was carried out in a 96-well microplate by using membrane fractions of Chinese hamster ovary (CHO) cells each of which was made to overexpress human S1P1 (EDG-1) or human S1P5 gene respectively, in an amount of the membrane fraction of 1 mg protein/mL. To each of the wells, 100 μL of a vehicle (DMSO) solution or a two-fold concentration-ligand solution each of which was diluted with Binding Buffer (50 mmol/L, Tris pH 7.5, 5 mmol/L, MgCl2, 0.5% BSA and Complete EDTA free (1 tablet/50 mL)), and 50 μL of 0.16 nmol/L [^33P]-S1P (manufactured by American Radiolabeled Chemicals, Inc.) diluted with Binding Buffer were added. Thereafter, the membrane fraction solutions (50 μL) was added to the wells and the reaction was carried out at room temperature for 60 minutes. After the reaction, suction filtration was carried out by using a 96-well UNIFILTER, and the 96-well microplate was washed with Wash Buffer (50 mmol/L, Tris pH 7.5, 0.5% BSA) ([…]), and thereafter, was dried at 60° C. for 45 minutes. MicroScint (trade name) 20 (50 μL/well) was added and the plate was covered with TopSeal-A, and thereafter, the radioactivity was measured by using TopCount (manufactured by PerkinElmer Inc.).

human S1P5 (EDG-8) [1] = biological target: T1, human S1P5 (EDG-8) (Homo sapiens (Human), UniProt Q9H228); assay: Inhibition of binding of [33P]-S1P to S1P5 (EDG-8), CHO cell membrane fractions; settings: [33P]-S1P displacement, CHO membranes overexpressing human S1P5
T1 sequence (Q9H228 whole entry): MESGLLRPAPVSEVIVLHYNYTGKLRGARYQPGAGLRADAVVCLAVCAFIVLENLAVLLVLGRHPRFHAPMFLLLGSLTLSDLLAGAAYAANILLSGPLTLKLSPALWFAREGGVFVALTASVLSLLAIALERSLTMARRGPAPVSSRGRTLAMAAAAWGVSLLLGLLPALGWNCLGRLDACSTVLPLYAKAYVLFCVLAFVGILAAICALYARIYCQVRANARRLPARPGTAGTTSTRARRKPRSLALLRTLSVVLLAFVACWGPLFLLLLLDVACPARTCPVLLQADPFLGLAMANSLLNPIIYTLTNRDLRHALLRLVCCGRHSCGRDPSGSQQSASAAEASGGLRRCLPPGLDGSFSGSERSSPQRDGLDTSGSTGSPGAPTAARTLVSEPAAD
Method: as §1, §2

human S1P5 (EDG-8) [2] = biological target: T1, human S1P5 (EDG-8); assay: S1P5 receptor agonist activity by monitoring intracellular cyclic AMP in CHO cells overexpressing human S1P5; assay type: cell-based; settings: cAMP, forskolin-stimulated CHO cells overexpressing human S1P5
Method: Biological Example 2: Evaluation of S1P5 Receptor Agonist Activities of the Compound of the Present Invention by Monitoring the Concentration of Produced Intracellular Cyclic AMP
CHO cells which were made to overexpress human S1P5 (EDG-8) gene were cultured in Ham's F12 Medium (manufactured by Gibco-BRL) containing 10% FBS (fetal bovine serum), penicillin/streptomycin and geneticin (0.25 mg/mL). The medium was removed from the cultured cells, the cultured cells were washed once with phosphate-buffered saline, and the cultured cells were treated with a vehicle (DMSO) solution or a compound solution each of which was diluted with Buffer (Hanks' balanced salt solution containing 20 mmol/L HEPES, 0.1 or 0.2% BSA, 1 mmol/L IBMX and 5 μmol/L forskolin) at 37° C. for 30 minutes. Thereafter, the cultured cells were washed once with phosphate-buffered saline, lysis of the cells, and the concentration of cyclic AMP in the cell lysate were measured by using cAMP Assay Kit (Cisbio Bioassays).

Sequence of human S1P1 (EDG-1) (P21453 whole entry): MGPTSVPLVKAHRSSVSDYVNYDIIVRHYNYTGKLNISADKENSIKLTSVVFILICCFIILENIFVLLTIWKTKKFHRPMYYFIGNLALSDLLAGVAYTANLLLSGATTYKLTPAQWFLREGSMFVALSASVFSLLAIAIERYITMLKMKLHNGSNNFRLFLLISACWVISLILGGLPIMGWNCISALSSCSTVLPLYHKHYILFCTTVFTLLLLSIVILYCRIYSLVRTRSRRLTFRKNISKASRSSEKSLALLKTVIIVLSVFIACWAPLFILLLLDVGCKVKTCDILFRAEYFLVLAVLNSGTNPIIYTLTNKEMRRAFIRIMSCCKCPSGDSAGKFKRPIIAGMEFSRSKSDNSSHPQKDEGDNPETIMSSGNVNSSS

| SMILES | IC50 (human S1P1 (EDG-1)) [nM] | IC50 (human S1P5 (EDG-8) [1]) [nM] | EC50 (human S1P5 (EDG-8) [2]) [nM] |
| --- | --- | --- | --- |
| O=C(O)CCCN1CCc2cccc(OCCCc3ccccc3)c2CC1 [Example 18 (11), 4-[6-(3-Phenylpropoxy)-1,2,4,5-tetrahydro-3H-3-benzazepin-3-yl]butanoic Acid] | – | – | 1 to 100 |
| CC(C)c1ccc(/C=C/COc2cccc3c2CCN(CCCC(=O)O)C3)cc1 [Example 18 (3), 4-[5-{[(2E)-3-(4-Isopropylphenyl)-2-propen-1-yl]oxy}-3,4-dihydro-2(1H)-isoquinolinyl]butanoic Acid] | > 30000 | 1000 to 3000 | – |
| O=C(O)C1CN(C2CCc3cccc(OCCc4cccc5ccccc45)c3C2)C1 (stereo not drawn) [Example 3 (5), 1-{8-[2-(1-Naphthyl)ethoxy]-1,2,3,4-tetrahydro-2-naphthalenyl}-3-azetidinecarboxylic Acid] | – | – | 1 to 100 |
| O=C(O)CCCN1CCc2cccc(OC/C=C/c3ccc(C(F)(F)F)cc3)c2C1 [Example 18 (2), 4-[8-({(2E)-3-[4-(Trifluoromethyl)phenyl]-2-propen-1-yl}oxy)-3,4-dihydro-2(1H)-isoquinolinyl]butanoic Acid trifluoroacetate] | > 30000 | 1000 to 3000 | – |
| O=C(O)CCCN1CCc2c(cccc2OCCc2ccc3ccccc3c2)C1 [Example 18 (1), 4-{5-[2-(2-naphthyl)ethoxy]-3,4-dihydro-2(1H)-isoquinolinyl}butanoic Acid trifluoroacetate] | > 30000 | 1000 to 3000 | – |
| O=C(O)C1CCN(C2CCc3c(cccc3OC/C=C/c3ccc(C(F)(F)F)cc3)C2)C1 (stereo not drawn) [Example 3 (1), 1-[5-({(2E)-3-[4-(Trifluoromethyl)phenyl]-2-propen-1-yl}oxy)-1,2,3,4-tetrahydro-2-naphthalenyl]-3-pyrrolidinecarboxylic Acid] | > 30000 | 1000 to 3000 | – |
| O=C(O)CCCN1CCc2c(cccc2OC/C=C/c2ccc(OC(F)F)cc2)C1 [Example 18 (4), 4-[5-({(2E)-3-[4-(Difluoromethoxy)phenyl]-2-propen-1-yl}oxy)-3,4-dihydro-2(1H)-isoquinolinyl]butanoic Acid] | > 30000 | 1000 to 3000 | – |
| CN(CCC(=O)O)C1CCc2cccc(OC/C=C/c3ccc(C(F)(F)F)cc3)c2C1 (stereo not drawn) [Example 3 (3), 3-{Methyl[8-({(2E)-3-[4-(trifluoromethyl)phenyl]-2-propen-1-yl}loxy)-1,2,3,4-tetrahydro-2-naphthalenyl]amino}propanoic Acid] | > 30000 | 100 to 1000 | – |
| O=C(O)C1CN(C2Cc3cccc(OCCc4ccccc4)c3C2)C1 (stereo not drawn) [Example 48, 1-[4-(2-Phenylethoxy)-2,3-dihydro-1H-inden-2-yl]-3-azetidinecarboxylic Acid] | > 30000 | 100 to 1000 | – |
| O=C(O)CCCN1CCc2cccc(OCCc3cccc4ccccc34)c2CC1 [Example 18 (18), 4-{6-[2-(1-Naphthyl)ethoxy]-1,2,4,5-tetrahydro-3H-3-benzazepin-3-yl}butanoic Acid] | > 10000 | 1 to 100 | 1 to 100 |
| O=C(O)C1CN(C2CCc3cccc(OCCCc4ccccc4)c3C2)C1 (stereo not drawn) [Example 3 (4), 1-[8-(3-Phenylpropoxy)-1,2,3,4-tetrahydro-2-naphthalenyl]-3-azetidinecarboxylic Acid] | > 10000 | 1 to 100 | – |
| O=C(O)CCCCN1CCCc2c(cccc2OC/C=C/c2ccc(C(F)(F)F)cc2)C1 [Example 49, 5-[6-({(2E)-3-[4-(Trifluoromethyl)phenyl]-2-propen-1-yl}oxy)-1,3,4,5-tetrahydro-2H-2-benzazepin-2-yl]pentanoic Acid] | > 30000 | 1000 to 3000 | – |
| O=C(O)CCCN1CCc2cccc(OCCCC3CCCCC3)c2CC1 [Example 18 (14), 4-[6-(3-Cyclohexylpropoxy)-1,2,4,5-tetrahydro-3H-3-benzazepin-3-yl]butanoic Acid] | > 10000 | 100 to 1000 | – |
| O=C(O)CCCN1CCc2cccc(OCCC3Cc4ccccc43)c2CC1 (stereo not drawn) [Example 18 (26), 4-{6-[2-(Bicyclo[4.2.0]octa-1,3,5-trien-7-yl)ethoxy]-1,2,4,5-tetrahydro-3H-3-benzazepin-3-yl}butanoic Acid] | > 10000 | 100 to 1000 | – |

Now from value to compound, other results behind:

| IC50 (human S1P1 (EDG-1)) [nM] | IC50 (human S1P5 (EDG-8) [1]) [nM] | SMILES | EC50 (human S1P5 (EDG-8) [2]) [nM] |
| --- | --- | --- | --- |
| > 10000 | 1 to 100 | O=C(O)CCCN1CCc2cccc(OCCCCCc3ccccc3)c2CC1 [Example 18 (24), 4-{6-[(5-Phenylpentyl)oxy]-1,2,4,5-tetrahydro-3H-3-benzazepin-3-yl}butanoic Acid] | – |
| > 10000 | 1 to 100 | Cc1ccc2c(c1OCCCc1ccccc1)CCN(CCCC(=O)O)CC2 [Example 29, 4-[7-Methyl-6-(3-phenylpropoxy)-1,2,4,5-tetrahydro-3H-3-benzazepin-3-yl]butanoic Acid] | – |
| > 10000 | 100 to 1000 | O=C(O)CCCN1CCc2cccc(OCCCC3CCOCC3)c2CC1 [Example 18 (42), 4-{6-[3-(tetrahydro-2H-pyran-4-yl)propoxy]-1,2,4,5-tetrahydro-3H-3-benzazepin-3-yl}butanoic Acid] | – |
| > 10000 | 100 to 1000 | O=C(O)CCCN1CCc2cccc(OCCc3ccccc3)c2CC1 [Example 18 (22), 4-[6-(2-Phenylethoxy)-1,2,4,5-tetrahydro-3H-3-benzazepin-3-yl]butanoic Acid] | – |
| > 10000 | 1 to 100 | O=C(O)C1CC(N2CCc3cccc(OCCc4cccc5ccccc45)c3CC2)C1 (single isomer, unassigned) [Example 23 (8), 3-{6-[2-(1-Naphthyl)ethoxy]-1,2,4,5-tetrahydro-3H-3-benzazepin-3-yl}cyclobutanecarboxylic Acid] | – |
| > 10000 | 100 to 1000 | CCCCCCCCOc1cccc2c1CCN(CCCC(=O)O)CC2 [Example 18 (32), 4-[6-(Octyloxy)-1,2,4,5-tetrahydro-3H-3-benzazepin-3-yl]butanoic Acid] | – |
| > 10000 | 100 to 1000 | O=C(O)CCCN1CCc2cccc(OCC3CCc4ccccc4C3)c2CC1 (stereo not drawn) [Example 18 (16), 4-[6-(1,2,3,4-Tetrahydro-2-naphthalenylmethoxy)-1,2,4,5-tetrahydro-3H-3-benzazepin-3-yl]butanoic Acid] | – |
| > 10000 | 100 to 1000 | O=C(O)CC1(CN2CCc3cccc(OCCc4cccc5ccccc45)c3CC2)CC1 [Example 37, [1-({6-[2-(1-Naphthyl)ethoxy]-1,2,4,5-tetrahydro-3H-3-benzazepin-3-yl}methyl)cyclopropyl]acetic Acid] | – |
| > 10000 | 1 to 100 | O=C(O)CCCN1CCc2cccc(OCCOc3ccc(C(F)(F)F)cc3)c2CC1 [Example 18 (10), 4-(6-{2-[4-(Trifluoromethyl)phenoxy]ethoxy}-1,2,4,5-tetrahydro-3H-3-benzazepin-3-yl)butanoic Acid] | – |
| > 10000 | 100 to 1000 | O=C(O)CCN1CCc2cccc(OC/C=C/c3ccc(C(F)(F)F)cc3)c2CC1 [Example 18 (8), 3-[6-({(2E)-3-[4-(Trifluoromethyl)phenyl]-2-propen-1-yl}oxy)-1,2,4,5-tetrahydro-3H-3-benzazepin-3-yl]propanoic Acid] | – |
| > 10000 | 1 to 100 | O=C(O)C1CN(C2CCc3cccc(OCCc4cccc5ccccc45)c3C2)C1 (single isomer, unassigned; (+)) [Example 51 (2), (+)-1-{8-[2-(1-Naphthyl)ethoxy]-1,2,3,4-tetrahydro-2-naphthalenyl}-3-azetidinecarboxylic Acid] | – |
| > 10000 | 1 to 100 | O=C(O)C1CN(C2CCc3cccc(OCCc4cccc5ccccc45)c3C2)C1 (single isomer, unassigned; (-)) [Example 51 (1), (−)-1-{8-[2-(1-Naphthyl)ethoxy]-1,2,3,4-tetrahydro-2-naphthalenyl}-3-azetidinecarboxylic Acid] | – |
